Assay results: the supplement of paper PMC12076712

Legend:
Test in all cases: pIC50, kinobeads binding competition
EPHB6 = biological target: T1, EPHB6 (UniProt O15197)
T1 sequence (whole entry): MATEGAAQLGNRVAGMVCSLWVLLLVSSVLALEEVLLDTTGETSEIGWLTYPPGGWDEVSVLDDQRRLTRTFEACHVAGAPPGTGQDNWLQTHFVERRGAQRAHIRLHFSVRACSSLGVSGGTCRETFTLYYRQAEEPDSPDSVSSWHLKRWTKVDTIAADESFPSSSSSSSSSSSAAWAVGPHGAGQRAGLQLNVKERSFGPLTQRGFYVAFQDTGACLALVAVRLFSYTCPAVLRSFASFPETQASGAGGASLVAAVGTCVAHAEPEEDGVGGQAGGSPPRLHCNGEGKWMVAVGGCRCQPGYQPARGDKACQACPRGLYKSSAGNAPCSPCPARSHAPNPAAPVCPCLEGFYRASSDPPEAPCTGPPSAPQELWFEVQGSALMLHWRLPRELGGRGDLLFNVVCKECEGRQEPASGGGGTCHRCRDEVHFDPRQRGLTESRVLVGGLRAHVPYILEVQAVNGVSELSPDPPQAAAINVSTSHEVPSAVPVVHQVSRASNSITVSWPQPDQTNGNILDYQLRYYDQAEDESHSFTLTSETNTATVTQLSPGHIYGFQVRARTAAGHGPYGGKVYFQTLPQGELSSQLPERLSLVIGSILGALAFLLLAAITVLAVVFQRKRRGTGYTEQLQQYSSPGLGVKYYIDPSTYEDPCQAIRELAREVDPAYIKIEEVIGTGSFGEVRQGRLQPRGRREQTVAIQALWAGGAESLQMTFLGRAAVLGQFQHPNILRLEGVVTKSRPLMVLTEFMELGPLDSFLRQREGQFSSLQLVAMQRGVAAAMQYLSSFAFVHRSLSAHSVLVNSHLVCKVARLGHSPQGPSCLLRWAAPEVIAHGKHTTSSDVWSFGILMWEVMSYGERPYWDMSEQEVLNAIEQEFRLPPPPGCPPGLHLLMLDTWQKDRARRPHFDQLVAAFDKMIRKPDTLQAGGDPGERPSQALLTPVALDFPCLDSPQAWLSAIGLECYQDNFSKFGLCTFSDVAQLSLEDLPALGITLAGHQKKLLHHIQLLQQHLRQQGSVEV
In short: (§1)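 Either living Jurkat cells (60 min at 37 °C, then lysis) or lysates (60 min at 4 °C) were treated with nine compound concentrations from a top of 30 μM, in 1:4 steps for cells and 1:5 steps for lysates. The lysates were from Jurkat cells or a 1:1:1:1 mix of HEK293, K-562, HepG2 and placenta. Kinobeads-bound proteins were digested and quantified by TMT10 LC-MS/MS. pIC50 was calculated by logistic dose-response fitting (R drc package) of fold changes relative to vehicle, in biological duplicates.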

MAP3K4 = MAP3K4 (UniProt Q9Y6R4)
In short: as §1

TAOK2 = biological target: T2, TAOK2 (UniProt Q9UL54)
T2 sequence (whole entry): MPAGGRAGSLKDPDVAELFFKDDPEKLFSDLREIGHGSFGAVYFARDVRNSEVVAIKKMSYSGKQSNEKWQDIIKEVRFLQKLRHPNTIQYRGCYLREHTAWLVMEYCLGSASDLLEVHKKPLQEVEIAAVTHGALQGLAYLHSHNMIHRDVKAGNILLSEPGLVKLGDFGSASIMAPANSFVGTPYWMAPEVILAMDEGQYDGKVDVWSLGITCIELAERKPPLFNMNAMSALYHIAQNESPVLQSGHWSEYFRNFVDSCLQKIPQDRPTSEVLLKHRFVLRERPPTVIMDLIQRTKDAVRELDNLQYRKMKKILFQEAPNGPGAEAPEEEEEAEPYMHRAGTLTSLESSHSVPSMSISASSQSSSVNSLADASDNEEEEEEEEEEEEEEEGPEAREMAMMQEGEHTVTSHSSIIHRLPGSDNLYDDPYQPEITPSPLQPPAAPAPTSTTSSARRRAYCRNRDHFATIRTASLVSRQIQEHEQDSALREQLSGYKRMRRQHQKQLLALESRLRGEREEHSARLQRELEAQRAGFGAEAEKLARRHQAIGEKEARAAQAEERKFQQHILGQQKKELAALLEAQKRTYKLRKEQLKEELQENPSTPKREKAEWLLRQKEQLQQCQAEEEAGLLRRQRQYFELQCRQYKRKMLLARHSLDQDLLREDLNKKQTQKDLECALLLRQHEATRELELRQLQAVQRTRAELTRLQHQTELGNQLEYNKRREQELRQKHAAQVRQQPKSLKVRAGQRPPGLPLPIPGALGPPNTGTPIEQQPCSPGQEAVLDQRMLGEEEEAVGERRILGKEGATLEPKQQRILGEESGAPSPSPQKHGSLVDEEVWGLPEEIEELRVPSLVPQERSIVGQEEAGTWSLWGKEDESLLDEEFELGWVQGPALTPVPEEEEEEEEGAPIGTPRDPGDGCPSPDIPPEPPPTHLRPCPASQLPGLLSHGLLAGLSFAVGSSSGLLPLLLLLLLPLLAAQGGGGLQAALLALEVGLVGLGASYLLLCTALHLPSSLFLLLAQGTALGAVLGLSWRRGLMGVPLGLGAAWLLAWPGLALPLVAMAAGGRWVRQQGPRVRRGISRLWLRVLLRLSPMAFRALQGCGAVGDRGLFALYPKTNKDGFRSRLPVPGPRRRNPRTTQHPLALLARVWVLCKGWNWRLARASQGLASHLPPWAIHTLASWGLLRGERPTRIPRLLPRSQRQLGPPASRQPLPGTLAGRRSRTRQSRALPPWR
In short: as §1

UniProt Q92918 = biological target: UniProt Q92918
In short: as §1

PIP4K2A = biological target: T3, PIP4K2A (UniProt P48426)
T3 sequence (whole entry): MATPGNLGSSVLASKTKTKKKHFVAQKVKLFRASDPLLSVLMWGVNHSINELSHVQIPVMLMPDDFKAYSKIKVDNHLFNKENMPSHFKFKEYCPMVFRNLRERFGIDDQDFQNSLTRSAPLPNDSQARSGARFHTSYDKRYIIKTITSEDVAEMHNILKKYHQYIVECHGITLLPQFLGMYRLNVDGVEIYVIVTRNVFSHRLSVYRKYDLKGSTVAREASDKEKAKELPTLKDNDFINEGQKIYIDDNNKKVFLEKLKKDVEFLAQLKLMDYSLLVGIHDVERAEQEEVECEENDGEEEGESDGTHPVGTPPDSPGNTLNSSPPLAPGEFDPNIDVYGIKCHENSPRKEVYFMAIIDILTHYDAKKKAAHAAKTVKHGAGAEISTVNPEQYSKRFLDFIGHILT
In short: as §1

TAOK3 = TAOK3 (UniProt Q9H2K8)
In short: as §1

Sequence of MAP3K4 (Q9Y6R4 whole entry): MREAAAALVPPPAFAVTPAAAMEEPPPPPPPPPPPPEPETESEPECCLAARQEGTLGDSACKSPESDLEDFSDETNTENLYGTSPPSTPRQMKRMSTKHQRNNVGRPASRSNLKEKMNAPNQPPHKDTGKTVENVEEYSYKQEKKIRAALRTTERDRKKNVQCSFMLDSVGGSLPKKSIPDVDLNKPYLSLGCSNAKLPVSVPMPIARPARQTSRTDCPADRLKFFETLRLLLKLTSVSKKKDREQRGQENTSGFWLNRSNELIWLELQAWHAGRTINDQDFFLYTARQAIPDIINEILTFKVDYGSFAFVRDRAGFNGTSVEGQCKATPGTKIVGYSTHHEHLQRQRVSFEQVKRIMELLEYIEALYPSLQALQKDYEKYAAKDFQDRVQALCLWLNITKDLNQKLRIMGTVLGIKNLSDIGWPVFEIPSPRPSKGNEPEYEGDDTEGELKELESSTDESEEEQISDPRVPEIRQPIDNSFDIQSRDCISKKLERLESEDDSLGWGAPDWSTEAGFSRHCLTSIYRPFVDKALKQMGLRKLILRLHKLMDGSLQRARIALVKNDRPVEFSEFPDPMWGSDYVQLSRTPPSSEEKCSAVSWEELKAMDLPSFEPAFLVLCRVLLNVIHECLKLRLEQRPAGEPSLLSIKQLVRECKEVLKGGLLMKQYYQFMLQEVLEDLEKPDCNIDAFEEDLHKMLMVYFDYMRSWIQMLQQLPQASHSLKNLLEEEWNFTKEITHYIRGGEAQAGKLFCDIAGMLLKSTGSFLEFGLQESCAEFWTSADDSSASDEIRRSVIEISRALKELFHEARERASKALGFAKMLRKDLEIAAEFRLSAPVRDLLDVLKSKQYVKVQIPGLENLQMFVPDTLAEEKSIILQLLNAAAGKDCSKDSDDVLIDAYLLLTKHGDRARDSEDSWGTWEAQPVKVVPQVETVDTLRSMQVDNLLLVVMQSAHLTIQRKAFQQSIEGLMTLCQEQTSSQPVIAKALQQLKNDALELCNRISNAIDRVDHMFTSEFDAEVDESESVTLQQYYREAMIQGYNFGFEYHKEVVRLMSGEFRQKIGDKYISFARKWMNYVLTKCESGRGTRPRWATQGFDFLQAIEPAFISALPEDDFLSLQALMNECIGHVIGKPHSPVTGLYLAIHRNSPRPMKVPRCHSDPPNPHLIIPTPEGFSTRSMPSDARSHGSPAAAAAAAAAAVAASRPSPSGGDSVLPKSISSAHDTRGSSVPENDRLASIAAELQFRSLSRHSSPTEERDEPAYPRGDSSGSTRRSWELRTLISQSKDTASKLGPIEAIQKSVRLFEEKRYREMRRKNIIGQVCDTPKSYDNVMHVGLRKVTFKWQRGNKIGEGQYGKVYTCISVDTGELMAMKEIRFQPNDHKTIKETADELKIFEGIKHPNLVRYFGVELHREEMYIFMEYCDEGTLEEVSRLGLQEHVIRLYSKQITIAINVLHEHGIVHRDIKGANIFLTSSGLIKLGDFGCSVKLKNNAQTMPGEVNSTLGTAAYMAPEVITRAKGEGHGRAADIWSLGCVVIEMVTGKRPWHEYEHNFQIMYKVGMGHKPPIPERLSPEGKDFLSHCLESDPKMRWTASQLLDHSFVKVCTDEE
Sequence of UniProt Q92918 (Q92918 whole entry, looked up): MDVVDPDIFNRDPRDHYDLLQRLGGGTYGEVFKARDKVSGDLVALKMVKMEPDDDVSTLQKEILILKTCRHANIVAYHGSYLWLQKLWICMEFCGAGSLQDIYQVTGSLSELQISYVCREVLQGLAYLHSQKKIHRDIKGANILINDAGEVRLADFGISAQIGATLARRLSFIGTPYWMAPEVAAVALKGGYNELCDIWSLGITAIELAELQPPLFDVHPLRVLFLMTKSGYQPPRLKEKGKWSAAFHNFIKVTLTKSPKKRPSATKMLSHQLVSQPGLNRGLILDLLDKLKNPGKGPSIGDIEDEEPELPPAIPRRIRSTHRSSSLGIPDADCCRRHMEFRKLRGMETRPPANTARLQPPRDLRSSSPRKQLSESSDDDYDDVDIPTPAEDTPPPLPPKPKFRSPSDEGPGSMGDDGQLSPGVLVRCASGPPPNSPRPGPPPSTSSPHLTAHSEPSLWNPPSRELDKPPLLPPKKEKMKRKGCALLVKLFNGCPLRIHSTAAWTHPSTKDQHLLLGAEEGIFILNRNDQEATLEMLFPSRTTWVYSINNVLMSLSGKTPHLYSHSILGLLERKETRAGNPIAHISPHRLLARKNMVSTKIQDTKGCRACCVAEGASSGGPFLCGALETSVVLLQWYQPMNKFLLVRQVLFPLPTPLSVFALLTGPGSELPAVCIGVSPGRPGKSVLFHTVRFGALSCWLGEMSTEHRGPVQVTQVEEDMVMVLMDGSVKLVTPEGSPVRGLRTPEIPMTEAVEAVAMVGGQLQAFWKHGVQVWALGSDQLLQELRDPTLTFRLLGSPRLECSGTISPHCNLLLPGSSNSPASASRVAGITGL
Sequence of TAOK3 (Q9H2K8 whole entry, looked up): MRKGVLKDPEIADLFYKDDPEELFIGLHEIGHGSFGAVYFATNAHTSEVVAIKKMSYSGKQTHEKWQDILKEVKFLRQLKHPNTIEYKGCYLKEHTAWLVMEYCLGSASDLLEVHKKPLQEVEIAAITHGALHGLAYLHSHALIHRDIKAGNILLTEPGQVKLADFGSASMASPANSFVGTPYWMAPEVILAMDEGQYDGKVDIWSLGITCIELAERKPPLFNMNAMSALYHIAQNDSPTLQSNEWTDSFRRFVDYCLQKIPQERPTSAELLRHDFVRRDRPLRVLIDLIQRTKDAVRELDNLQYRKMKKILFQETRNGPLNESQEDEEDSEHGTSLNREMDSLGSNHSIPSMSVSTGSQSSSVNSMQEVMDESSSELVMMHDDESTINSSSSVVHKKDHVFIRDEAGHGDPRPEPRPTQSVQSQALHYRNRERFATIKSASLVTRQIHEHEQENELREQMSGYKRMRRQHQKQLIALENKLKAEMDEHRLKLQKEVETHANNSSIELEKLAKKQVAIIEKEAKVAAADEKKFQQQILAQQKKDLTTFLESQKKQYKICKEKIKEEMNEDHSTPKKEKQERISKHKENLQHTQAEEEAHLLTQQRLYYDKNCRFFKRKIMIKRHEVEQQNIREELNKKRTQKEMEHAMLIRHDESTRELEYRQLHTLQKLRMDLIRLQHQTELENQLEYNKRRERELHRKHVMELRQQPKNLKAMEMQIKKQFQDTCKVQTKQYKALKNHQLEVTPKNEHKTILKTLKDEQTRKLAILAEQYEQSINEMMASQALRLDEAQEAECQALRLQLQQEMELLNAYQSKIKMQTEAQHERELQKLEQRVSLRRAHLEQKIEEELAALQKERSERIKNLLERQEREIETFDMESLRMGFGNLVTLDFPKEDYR

With `C#CCNC(=O)c1cc(Nc2cc(C3CC3)[nH]n2)nc(N2CCN(Cc3ccc(S(=O)(=O)F)cc3)CC2)n1` the pIC50 (EPHB6; cell material: Jurkat cells) was 5.28, the pIC50 (EPHB6; cell material: Jurkat lysate) was under 4.52 and the pIC50 (EPHB6; cell material: Lysate mix) was under 4.52. It also gave a pIC50 (MAP3K4; cell material: Jurkat cells) of 6.09, a pIC50 (MAP3K4; cell material: Jurkat lysate) of 4.81 and a pIC50 (MAP3K4; cell material: Lysate mix) of 5.74. It also gave a pIC50 (TAOK2; cell material: Jurkat lysate) of under 4.52, a pIC50 (TAOK2; cell material: Lysate mix) of under 4.52 and a pIC50 (UniProt Q92918; cell material: Jurkat cells) of 5.88. The pIC50 (UniProt Q92918; cell material: Jurkat lysate) was 5.35, the pIC50 (UniProt Q92918; cell material: Lysate mix) was 5.9 and the pIC50 (PIP4K2A; cell material: Jurkat cells) was 4.96. It also gave a pIC50 (PIP4K2A; cell material: Jurkat lysate) of under 4.52, a pIC50 (PIP4K2A; cell material: Lysate mix) of under 4.52 and a pIC50 (TAOK3; cell material: Jurkat cells) of 5.56. The pIC50 (TAOK3; cell material: Jurkat lysate) was under 4.52 and the pIC50 (TAOK3; cell material: Lysate mix) was under 4.52.

`C#CCNC(=O)c1cc(Nc2cc(C)[nH]n2)nc(N2CCN(Cc3ccc(S(=O)(=O)F)cc3)CC2)n1` was tested, and the pIC50 (EPHB6; cell material: Lysate mix) was under 4.52, the pIC50 (MAP3K4; cell material: Lysate mix) was 4.88 and the pIC50 (TAOK2; cell material: Lysate mix) was under 4.52. The pIC50 (UniProt Q92918; cell material: Lysate mix) was 4.77, the pIC50 (PIP4K2A; cell material: Lysate mix) was under 4.52 and the pIC50 (TAOK3; cell material: Lysate mix) was under 4.52.

In the case of `Cc1cc(Nc2cc(C(=O)NCCNC(=O)OC3CC/C=C/CCC3)nc(N3CCN(Cc4ccc(S(=O)(=O)F)cc4)CC3)n2)n[nH]1` (stereo not drawn), the pIC50 (EPHB6; cell material: Lysate mix) is reported as under 4.52, the pIC50 (MAP3K4; cell material: Lysate mix) is reported as under 4.52 and the pIC50 (TAOK2; cell material: Lysate mix) is reported as 5.15. It also gave a pIC50 (UniProt Q92918; cell material: Lysate mix) of under 4.52, a pIC50 (PIP4K2A; cell material: Lysate mix) of under 4.52 and a pIC50 (TAOK3; cell material: Lysate mix) of 6.03.

`O=C(NCCNC(=O)c1cc(Nc2cc(C3CC3)[nH]n2)nc(N2CCN(Cc3ccc(S(=O)(=O)F)cc3)CC2)n1)OC1CC/C=C/CCC1` (stereo not drawn) showed a pIC50 (EPHB6; cell material: Jurkat cells) of under 4.52, a pIC50 (EPHB6; cell material: Jurkat lysate) of under 4.52 and a pIC50 (MAP3K4; cell material: Jurkat cells) of 5.96. The pIC50 (MAP3K4; cell material: Jurkat lysate) was under 4.52, the pIC50 (MAP3K4; cell material: Lysate mix) was under 4.52 and the pIC50 (TAOK2; cell material: Jurkat cells) was 5.96. The pIC50 (TAOK2; cell material: Jurkat lysate) was 5.08, the pIC50 (TAOK2; cell material: Lysate mix) was 5.33 and the pIC50 (UniProt Q92918; cell material: Jurkat cells) was 5.32. It also gave a pIC50 (UniProt Q92918; cell material: Jurkat lysate) of under 4.52, a pIC50 (UniProt Q92918; cell material: Lysate mix) of under 4.52 and a pIC50 (PIP4K2A; cell material: Jurkat cells) of under 4.52. For the same compound, the pIC50 (PIP4K2A; cell material: Jurkat lysate) was under 4.52, the pIC50 (PIP4K2A; cell material: Lysate mix) was under 4.52 and the pIC50 (TAOK3; cell material: Jurkat cells) was 6.22. It also gave a pIC50 (TAOK3; cell material: Jurkat lysate) of 5.61 and a pIC50 (TAOK3; cell material: Lysate mix) of 5.55.

In the case of `CCNC(=O)c1cc(Nc2cc(C)[nH]n2)nc(N2CCN(Cc3ccc(S(=O)(=O)F)cc3)CC2)n1`, the pIC50 (EPHB6; cell material: Lysate mix) is reported as under 4.52, the pIC50 (MAP3K4; cell material: Lysate mix) is reported as 4.8 and the pIC50 (TAOK2; cell material: Lysate mix) is reported as under 4.52. It also gave a pIC50 (UniProt Q92918; cell material: Lysate mix) of 4.78, a pIC50 (PIP4K2A; cell material: Lysate mix) of under 4.52 and a pIC50 (TAOK3; cell material: Lysate mix) of under 4.52.

In the case of `CCNC(=O)c1cc(Nc2cc(C3CC3)[nH]n2)nc(N2CCN(Cc3ccc(S(=O)(=O)F)cc3)CC2)n1`, the pIC50 (EPHB6; cell material: Lysate mix) is reported as under 4.52, the pIC50 (MAP3K4; cell material: Lysate mix) is reported as 5.61 and the pIC50 (TAOK2; cell material: Lysate mix) is reported as under 4.52. The pIC50 (UniProt Q92918; cell material: Lysate mix) was 5.8, the pIC50 (PIP4K2A; cell material: Lysate mix) was under 4.52 and the pIC50 (TAOK3; cell material: Lysate mix) was under 4.52.
